The source made the active and inactive calls.
What was measured:
[1] = target: Adenosylmethionine-8-amino-7-oxononanoate aminotransferase (Mycobacterium tuberculosis, UniProt P9WQ81); experiment: Mycobacterium tuberculosis BioA enzyme inhibitor Measured in Biochemical System Using Plate Reader - 2163-02_Inhibitor_Dose_CherryPick_Activity.; type: functional, Mycobacterium tuberculosis UT205
[2] = target: Peroxisome proliferator-activated receptor gamma/Nuclear receptor coactivator 2 (Homo sapiens, UniProt P37231); experiment: (§1) TR-FRET dose response biochemical High Throughput Screening assay for agonists of the steroid receptor coactivator 2 (SRC-2) recruitment by the peroxisome proliferator-activated receptor gamma (PPAR gamma): non-selective agonists. [Related pubchem assays: 1297, 1032 ]; type: functional
[3] = target: Peroxisome proliferator-activated receptor gamma/Nuclear receptor coactivator 3 (Homo sapiens, UniProt P37231); experiment: as §1, with “3 (SRC-3)” for “2 (SRC-2)”, “1301 (Confirmation screen.), 1048 (Primary screen.)]” for “1297, 1032 ]”; type: functional
[4] = target: Peroxisome proliferator-activated receptor gamma/Nuclear receptor coactivator 1 (Homo sapiens, UniProt P37231); experiment: as §1, with “1 (SRC-1)” for “2 (SRC-2)”, “assays (depositor defined):AID1300, AID1808, AID504735, AID631]” for “assays: 1297, 1032 ]”; type: protein assay
Chain of Peroxisome proliferator-activated receptor gamma/Nuclear receptor coactivator 1 (P37231 whole entry): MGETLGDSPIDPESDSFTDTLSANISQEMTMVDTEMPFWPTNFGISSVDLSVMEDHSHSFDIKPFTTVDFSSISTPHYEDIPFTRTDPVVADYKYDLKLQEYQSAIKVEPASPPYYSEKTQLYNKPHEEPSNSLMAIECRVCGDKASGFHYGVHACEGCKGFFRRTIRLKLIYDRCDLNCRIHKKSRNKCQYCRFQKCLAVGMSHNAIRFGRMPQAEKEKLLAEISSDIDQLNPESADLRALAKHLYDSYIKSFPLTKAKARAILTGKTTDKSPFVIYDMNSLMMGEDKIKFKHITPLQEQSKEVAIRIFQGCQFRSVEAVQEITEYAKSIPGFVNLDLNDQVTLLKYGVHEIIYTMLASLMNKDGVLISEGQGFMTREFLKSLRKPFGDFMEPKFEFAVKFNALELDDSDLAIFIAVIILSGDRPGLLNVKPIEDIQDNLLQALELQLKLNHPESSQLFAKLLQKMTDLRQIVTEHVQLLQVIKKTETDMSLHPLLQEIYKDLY
Chain of Peroxisome proliferator-activated receptor gamma/Nuclear receptor coactivator 1 (Q15788 whole entry, further chain): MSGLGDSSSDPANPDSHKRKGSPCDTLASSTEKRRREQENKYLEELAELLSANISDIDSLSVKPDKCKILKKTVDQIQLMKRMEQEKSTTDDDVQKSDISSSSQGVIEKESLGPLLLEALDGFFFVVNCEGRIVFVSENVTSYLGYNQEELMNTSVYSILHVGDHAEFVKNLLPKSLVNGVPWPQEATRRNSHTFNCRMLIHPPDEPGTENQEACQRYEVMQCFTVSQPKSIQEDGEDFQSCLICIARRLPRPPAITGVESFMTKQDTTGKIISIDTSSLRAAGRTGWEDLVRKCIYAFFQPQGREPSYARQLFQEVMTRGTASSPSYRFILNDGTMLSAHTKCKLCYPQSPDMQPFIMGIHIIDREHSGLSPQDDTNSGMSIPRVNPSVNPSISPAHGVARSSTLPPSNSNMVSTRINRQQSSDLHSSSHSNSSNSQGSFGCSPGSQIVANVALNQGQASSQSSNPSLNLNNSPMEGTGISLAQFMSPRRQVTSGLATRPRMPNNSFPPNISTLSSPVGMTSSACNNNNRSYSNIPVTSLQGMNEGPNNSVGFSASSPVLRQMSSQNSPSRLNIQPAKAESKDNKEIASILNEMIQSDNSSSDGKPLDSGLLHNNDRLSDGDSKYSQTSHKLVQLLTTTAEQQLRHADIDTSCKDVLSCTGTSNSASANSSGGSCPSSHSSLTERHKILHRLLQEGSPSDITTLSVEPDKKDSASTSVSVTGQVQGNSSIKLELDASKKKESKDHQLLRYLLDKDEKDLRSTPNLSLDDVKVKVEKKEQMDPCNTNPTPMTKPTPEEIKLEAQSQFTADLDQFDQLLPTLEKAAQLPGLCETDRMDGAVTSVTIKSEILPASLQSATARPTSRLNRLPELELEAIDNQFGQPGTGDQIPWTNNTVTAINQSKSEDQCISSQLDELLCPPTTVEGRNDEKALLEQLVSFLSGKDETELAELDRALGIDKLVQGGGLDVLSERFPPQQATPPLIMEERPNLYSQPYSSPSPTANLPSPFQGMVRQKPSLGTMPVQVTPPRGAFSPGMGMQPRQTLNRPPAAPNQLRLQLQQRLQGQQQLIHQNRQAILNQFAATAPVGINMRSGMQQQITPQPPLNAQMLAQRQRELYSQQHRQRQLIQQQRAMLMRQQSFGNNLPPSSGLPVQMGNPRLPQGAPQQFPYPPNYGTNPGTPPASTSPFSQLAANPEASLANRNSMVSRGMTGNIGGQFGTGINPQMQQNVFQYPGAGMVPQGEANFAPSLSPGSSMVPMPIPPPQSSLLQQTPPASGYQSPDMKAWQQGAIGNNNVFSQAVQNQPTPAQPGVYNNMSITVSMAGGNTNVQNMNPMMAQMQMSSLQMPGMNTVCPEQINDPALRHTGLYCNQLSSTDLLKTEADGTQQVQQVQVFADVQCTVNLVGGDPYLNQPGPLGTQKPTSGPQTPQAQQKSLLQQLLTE

[5] = reduction of Shn3 3'UTR-driven luciferase in osteoblasts – cell-based, Clone20 osteoblasts, firefly luciferase, cherry-picked, dose response (AID 624132); type: functional;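 further: firefly luciferase luminescence from reporter carrying the Shn3 3'UTR in osteoblasts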
Protein Wnt-3a = Protein Wnt-3a (Mus musculus, UniProt P27467); experiment: antagonism of Wnt3a pathway luciferase reporter – Wnt-LIGHT cells, luminescence, selectivity assay for Gli-SUFU antagonist project, dose response (AID 651570); type: functional; settings: read-out: IC50_Mean;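 further: Wnt-LIGHT reporter cells stimulated with conditioned medium from Wnt3a-producing cells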
Chain of Protein Wnt-3a (P27467 whole entry): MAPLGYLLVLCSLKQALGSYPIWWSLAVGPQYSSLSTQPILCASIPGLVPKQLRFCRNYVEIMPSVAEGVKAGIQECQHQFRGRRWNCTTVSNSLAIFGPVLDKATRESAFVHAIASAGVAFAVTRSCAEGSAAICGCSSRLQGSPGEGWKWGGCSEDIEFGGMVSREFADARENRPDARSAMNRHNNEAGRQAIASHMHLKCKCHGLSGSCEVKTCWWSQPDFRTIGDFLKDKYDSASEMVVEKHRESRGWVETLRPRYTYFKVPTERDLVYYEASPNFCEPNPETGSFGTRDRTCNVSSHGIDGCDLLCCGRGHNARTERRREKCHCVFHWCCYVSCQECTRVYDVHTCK

[6] = loss of viability in HepG2 cells – cell-based, CellTiter-Glo, cherry-picked, cytotoxicity control for Shn3 inhibitor project, dose response (AID 624134); type: functional
[7] = non-specific 3'UTR reporter inhibition in Clone20-Shn3RL – cell-based, Renilla luciferase, cherry-picked, counter-screen for Shn3 inhibitor project, dose response (AID 624133); type: functional
INS1 = experiment: INS-1E survival protection against cytokine death – cell-based, luminescence, retest, dose response (AID 449756); type: functional; settings: Rattus norvegicus;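 further: cell death triggered by IL-1 beta plus TNF-alpha plus IFN-gamma mixture; protective hits raise ATP signal compared with cytokine alone wells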
[8] = target: T1, Sentrin-specific protease 6 (Homo sapiens, UniProt Q9GZR1); type: functional;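 further: Luminescence-based dose-response confirmatory assay of SENP6 inhibition, following up an ultra-high-throughput screen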
T1 sequence (Q9GZR1 whole entry): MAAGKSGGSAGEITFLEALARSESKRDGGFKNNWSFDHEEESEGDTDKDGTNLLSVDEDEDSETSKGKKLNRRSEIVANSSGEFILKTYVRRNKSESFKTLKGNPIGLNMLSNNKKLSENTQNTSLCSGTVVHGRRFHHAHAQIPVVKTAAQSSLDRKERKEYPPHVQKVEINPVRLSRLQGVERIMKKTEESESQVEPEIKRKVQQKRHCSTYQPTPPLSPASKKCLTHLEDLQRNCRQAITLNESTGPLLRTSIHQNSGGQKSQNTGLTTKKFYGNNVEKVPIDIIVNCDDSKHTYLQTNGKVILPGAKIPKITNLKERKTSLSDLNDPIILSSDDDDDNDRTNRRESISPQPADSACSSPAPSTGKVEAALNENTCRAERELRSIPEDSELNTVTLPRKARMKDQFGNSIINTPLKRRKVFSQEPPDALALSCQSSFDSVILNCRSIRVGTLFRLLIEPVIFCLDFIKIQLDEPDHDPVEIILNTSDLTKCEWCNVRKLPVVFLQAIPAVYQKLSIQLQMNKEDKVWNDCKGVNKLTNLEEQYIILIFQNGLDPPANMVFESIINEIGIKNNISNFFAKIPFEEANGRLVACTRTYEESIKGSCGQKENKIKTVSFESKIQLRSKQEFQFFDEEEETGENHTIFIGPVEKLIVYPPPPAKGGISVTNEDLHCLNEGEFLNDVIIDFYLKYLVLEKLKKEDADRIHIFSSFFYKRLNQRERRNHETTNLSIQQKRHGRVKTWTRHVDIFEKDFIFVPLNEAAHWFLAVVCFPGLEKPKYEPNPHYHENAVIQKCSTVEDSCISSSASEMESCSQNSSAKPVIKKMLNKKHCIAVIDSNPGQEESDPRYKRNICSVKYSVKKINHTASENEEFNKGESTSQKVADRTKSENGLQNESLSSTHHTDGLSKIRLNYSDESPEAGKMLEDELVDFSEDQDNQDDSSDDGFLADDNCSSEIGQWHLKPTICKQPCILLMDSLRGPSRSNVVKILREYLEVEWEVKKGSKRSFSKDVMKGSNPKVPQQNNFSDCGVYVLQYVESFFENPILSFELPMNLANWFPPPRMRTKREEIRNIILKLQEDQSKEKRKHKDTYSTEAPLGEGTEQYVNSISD

[9] = target: T2, Sentrin-specific protease 7 (Homo sapiens, UniProt Q9BQF6); type: functional;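 further: Luminescence-based dose-response confirmation of ultra-high-throughput screening hits, measuring inhibition of SENP7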
T2 sequence (Q9BQF6 whole entry): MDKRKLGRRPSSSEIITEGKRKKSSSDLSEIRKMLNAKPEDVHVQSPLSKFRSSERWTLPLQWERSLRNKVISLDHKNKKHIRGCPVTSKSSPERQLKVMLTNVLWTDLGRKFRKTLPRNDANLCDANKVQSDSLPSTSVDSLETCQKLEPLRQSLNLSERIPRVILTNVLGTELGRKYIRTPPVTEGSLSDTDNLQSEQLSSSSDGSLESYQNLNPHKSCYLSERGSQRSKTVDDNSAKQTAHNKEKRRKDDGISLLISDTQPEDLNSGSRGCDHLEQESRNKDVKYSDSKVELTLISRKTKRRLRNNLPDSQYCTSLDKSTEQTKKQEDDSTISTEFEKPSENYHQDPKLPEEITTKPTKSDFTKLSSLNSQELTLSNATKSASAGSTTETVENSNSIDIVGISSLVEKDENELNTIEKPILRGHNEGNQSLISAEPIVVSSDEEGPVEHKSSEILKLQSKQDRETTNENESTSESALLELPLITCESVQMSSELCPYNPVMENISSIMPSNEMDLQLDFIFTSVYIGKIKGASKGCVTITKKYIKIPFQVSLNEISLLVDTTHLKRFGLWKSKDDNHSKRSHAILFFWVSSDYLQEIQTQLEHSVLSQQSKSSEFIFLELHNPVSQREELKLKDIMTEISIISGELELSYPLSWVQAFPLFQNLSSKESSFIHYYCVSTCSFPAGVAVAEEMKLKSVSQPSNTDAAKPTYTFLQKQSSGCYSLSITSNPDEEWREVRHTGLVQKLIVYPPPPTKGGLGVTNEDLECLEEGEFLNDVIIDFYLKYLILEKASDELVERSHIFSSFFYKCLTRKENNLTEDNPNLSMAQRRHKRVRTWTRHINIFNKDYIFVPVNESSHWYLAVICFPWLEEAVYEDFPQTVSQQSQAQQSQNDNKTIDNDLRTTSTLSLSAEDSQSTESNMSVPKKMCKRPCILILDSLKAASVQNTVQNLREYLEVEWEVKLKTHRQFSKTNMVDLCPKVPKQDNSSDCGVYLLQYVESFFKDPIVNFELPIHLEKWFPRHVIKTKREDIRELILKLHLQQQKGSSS

[10] = target: T3, Sentrin-specific protease 8 (Homo sapiens, UniProt Q96LD8); type: functional;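 further: luminescence read-out of SENP8 inhibition, dose-response confirmation following an ultra-high-throughput screen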
T3 sequence (Q96LD8 whole entry): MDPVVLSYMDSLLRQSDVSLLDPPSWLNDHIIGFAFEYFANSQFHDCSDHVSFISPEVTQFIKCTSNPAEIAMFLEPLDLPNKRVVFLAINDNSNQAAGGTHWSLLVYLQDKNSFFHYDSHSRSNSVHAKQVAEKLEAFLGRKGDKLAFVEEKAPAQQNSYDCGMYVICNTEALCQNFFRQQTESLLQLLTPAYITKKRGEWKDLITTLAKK

Protein skinhead-1 = target: T4, Protein skinhead-1 (Caenorhabditis elegans, UniProt P34707); type: functional
T4 sequence (P34707 whole entry): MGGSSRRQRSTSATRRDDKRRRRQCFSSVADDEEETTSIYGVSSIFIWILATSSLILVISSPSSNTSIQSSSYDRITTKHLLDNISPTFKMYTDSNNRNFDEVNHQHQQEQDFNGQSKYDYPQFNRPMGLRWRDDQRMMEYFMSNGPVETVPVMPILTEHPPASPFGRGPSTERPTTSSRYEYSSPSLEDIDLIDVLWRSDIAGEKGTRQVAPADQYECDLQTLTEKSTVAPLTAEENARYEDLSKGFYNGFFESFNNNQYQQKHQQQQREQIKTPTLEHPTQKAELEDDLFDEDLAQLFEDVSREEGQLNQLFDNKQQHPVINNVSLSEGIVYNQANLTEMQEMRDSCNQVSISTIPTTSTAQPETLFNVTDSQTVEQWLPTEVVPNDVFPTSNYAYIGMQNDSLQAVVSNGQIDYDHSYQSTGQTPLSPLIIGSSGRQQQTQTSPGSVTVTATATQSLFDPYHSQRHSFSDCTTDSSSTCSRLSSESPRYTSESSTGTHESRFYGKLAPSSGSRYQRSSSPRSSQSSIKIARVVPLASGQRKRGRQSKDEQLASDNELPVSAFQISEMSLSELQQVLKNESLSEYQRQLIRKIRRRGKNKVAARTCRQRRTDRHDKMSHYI

Caspase-3 = target: T5, Caspase-3 (Homo sapiens, UniProt P42574); type: functional;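 further: Dose-response selectivity test against caspase-3 for candidate inhibitors of sentrin-specific proteases (SENPs)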
T5 sequence (P42574 whole entry): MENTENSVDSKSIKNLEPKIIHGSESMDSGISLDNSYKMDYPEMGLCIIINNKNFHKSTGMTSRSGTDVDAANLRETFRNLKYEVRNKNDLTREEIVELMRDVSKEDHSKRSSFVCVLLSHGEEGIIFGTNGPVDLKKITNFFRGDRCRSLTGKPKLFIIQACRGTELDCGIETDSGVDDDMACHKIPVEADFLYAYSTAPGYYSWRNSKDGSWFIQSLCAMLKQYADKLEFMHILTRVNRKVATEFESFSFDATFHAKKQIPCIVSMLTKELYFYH

[11] = test system: Streptococcus sp. 'group A'; experiment: Streptococcus pyogenes SK(-)GAS viability under kanamycin – luminescence, BacTiterGlo, confirmation, counter-screen for streptokinase expression inhibitor project, dose response (AID 1900); type: functional, organism-based
Streptococcus = experiment: GAS UMAA2166 growth inhibition – luminescence, BacTiterGlo, counter-screen for streptokinase expression inhibitor project, dose response (AID 1915); type: functional, organism-based;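 further: potency for reduction of bacterial viability or growth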
Streptokinase A = target: T6, Streptokinase A (Streptococcus pyogenes serotype M1, UniProt P10520); experiment: viability-normalized secreted streptokinase activity reduction – plasminogen activation absorbance, OD405, dose response (AID 1914); type: functional, Streptococcus pyogenes M1 GAS;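 further: secreted streptokinase activity via plasminogen activation per viability signal from cell pellet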
T6 sequence (P10520 whole entry): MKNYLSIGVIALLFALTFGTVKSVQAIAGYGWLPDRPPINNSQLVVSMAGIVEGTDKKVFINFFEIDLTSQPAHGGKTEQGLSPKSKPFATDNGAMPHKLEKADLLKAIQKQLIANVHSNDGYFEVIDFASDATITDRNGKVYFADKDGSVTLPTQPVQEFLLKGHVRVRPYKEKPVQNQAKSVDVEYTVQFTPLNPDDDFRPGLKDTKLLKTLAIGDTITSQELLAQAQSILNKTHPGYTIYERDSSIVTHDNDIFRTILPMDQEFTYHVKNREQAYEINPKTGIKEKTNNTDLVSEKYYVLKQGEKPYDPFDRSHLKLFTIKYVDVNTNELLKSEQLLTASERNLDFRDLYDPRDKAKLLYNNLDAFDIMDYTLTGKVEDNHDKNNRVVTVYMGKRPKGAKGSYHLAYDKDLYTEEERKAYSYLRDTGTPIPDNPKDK

[12] = target: Tyrosine-protein phosphatase non-receptor type 5 (Homo sapiens, UniProt P54829); experiment: PTPN5 enzyme inhibition – biochemical, fluorescence intensity, uHTS hits, confirmation (AID 602372); type: functional; settings: read-out: IC50_Mean
Chain of Tyrosine-protein phosphatase non-receptor type 5 (P54829 whole entry): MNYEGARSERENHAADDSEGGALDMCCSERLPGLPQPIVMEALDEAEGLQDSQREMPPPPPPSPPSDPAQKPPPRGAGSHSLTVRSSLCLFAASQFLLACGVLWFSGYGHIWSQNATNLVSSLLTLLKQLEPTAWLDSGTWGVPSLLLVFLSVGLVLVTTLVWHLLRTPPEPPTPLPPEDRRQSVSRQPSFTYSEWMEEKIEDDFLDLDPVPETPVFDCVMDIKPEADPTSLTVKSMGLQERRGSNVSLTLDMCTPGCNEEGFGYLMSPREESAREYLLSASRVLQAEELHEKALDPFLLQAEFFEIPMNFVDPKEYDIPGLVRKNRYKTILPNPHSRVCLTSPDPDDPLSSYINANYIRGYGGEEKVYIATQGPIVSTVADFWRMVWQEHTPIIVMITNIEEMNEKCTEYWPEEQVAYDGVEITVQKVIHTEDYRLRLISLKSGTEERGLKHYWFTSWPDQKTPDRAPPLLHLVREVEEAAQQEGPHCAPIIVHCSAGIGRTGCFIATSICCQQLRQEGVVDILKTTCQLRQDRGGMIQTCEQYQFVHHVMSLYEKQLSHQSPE

[13] = target: Dual specificity protein phosphatase 3 (Homo sapiens, UniProt P51452); experiment: VHR phosphatase inhibition, dose response, selectivity assay for STEP inhibitor project, biochemical (AID 602374); type: functional; settings: read-out: IC50_Mean
Chain of Dual specificity protein phosphatase 3 (P51452 whole entry): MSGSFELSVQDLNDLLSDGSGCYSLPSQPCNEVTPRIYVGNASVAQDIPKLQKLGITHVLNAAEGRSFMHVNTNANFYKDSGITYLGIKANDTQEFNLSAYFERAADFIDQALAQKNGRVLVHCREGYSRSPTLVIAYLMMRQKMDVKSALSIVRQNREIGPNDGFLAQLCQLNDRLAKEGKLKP

[14] = target: Tyrosine-protein phosphatase non-receptor type 11 (Homo sapiens, UniProt Q06124); experiment: PTPN11 enzyme inhibitors – biochemical, selectivity assay for STEP inhibitor project, dose response (AID 602367); type: functional; settings: read-out: IC50_Mean
Chain of Tyrosine-protein phosphatase non-receptor type 11 (Q06124 whole entry): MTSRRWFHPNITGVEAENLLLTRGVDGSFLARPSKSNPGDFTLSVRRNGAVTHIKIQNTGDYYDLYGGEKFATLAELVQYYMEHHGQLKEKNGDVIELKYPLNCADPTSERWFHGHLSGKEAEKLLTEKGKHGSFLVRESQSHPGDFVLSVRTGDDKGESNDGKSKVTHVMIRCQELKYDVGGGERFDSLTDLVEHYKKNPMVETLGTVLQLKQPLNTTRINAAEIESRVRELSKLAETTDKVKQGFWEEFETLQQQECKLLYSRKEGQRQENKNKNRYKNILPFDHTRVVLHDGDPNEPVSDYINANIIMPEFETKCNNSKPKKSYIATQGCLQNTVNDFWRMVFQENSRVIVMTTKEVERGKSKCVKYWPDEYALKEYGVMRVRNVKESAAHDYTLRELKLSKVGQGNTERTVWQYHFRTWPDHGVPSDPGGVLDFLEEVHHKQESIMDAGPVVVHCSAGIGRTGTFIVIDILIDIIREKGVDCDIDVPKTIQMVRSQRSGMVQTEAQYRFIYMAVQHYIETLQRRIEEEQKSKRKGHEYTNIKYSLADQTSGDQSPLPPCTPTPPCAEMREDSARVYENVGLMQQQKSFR

[15] = target: T7, Polyadenylate-binding protein 1 (Homo sapiens, UniProt P11940); experiment: MLLE binding blockers, Cy5 peptide tracer – biochemical, fluorescence polarization, Cy5-PAM2 peptide, secondary, miRNA deadenylation inhibitor project, dose response (AID 602260); type: functional; settings: read-out: IC50_Mean
T7 sequence (P11940 whole entry, the tested form may be a part): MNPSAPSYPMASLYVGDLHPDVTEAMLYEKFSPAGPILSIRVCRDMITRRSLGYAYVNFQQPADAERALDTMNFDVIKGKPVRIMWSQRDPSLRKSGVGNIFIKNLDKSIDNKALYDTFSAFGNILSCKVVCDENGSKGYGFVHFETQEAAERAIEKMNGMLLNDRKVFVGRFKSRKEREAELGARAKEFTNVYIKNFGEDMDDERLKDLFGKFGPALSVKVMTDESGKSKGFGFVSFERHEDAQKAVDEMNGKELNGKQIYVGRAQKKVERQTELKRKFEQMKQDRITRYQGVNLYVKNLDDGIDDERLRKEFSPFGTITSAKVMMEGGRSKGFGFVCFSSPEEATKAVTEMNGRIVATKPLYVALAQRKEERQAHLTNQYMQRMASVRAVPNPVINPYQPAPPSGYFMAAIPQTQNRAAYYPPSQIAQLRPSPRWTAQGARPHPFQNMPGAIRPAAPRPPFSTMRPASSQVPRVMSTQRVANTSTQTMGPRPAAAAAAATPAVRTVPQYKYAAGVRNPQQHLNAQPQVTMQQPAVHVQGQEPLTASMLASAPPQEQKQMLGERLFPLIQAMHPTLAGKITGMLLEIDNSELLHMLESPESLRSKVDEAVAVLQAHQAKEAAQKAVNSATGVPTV

[16] = target: T7, Polyadenylate-binding protein 1; experiment: MLLE domain peptide-binding blockers, IC50 – biochemical, fluorescence polarization, FITC-PAM2 peptide, dose response (AID 602259); type: functional; settings: read-out: IC50_Mean

Chain of Adenosylmethionine-8-amino-7-oxononanoate aminotransferase (P9WQ81 whole entry): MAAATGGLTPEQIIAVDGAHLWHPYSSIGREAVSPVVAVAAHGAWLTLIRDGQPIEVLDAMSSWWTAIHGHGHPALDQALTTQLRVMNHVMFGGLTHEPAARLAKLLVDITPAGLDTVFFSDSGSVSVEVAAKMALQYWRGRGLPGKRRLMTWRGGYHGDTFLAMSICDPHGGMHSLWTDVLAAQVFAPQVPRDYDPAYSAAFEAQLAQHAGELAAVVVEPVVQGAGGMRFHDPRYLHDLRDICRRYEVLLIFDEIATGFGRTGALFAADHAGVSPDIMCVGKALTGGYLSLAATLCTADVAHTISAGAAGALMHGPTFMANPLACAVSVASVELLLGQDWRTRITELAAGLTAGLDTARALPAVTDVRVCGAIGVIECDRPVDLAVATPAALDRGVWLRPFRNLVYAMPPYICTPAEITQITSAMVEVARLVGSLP

CNC(=O)C[C@H]1CC[C@@H]2[C@H](COC[C@@H](O)CN2C(=O)Nc2ccc(Cl)c(Cl)c2)O1
AC50 [1]: 1.88 µM (active)

CCOc1ccc(S(=O)(=O)N(C)c2ccc(OCC(=O)Nc3nc(-c4cc(OC)ccc4OC)cs3)cc2)cc1
EC50 [2]: 34.8 µM (not active) | EC50 [3]: > 79.4 µM (not active) | EC50 [4]: 36.5 µM (inactive)

O=C(c1cc2sccc2n1Cc1ccc(F)cc1)N1CCN(c2nc3ccccc3s2)CC1
AC50 [5]: 1.36 µM (active) | IC50 (Protein Wnt-3a): 5.49 µM (active) | AC50 [6]: 3.48 µM (active) | AC50 [7]: 1.71 µM (active) | AC50 (INS1): 3.42 µM (active)

CCOC(=O)C1(CCc2ccccc2)CCN(C(=O)CN2CCOC2=O)CC1
AC50 [1]: 3.89 µM (active)

O=c1c2ccccc2oc2ccc(-c3ccc4[nH]ccc4c3)cc12
IC50 [8]: 33.7 µM (active) | IC50 [9]: 6.1 µM (active) | IC50 [10]: > 100 µM (inactive) | IC50 (Protein skinhead-1): 4.77 µM (active) | IC50 (Caspase-3): 75.1 µM (active)

Cc1n[nH]c(Nc2ccc(C(C)C)cc2)c1[N+](=O)[O-]
IC50 [8]: 10.1 µM (active) | IC50 [9]: 9.42 µM (active) | IC50 [10]: > 100 µM (inactive) | EC50 [11]: 30.9 µM (active) | IC50 (Caspase-3): 36 µM (active) | EC50 (Streptococcus): > 150 µM (not active) | EC50 (Streptokinase A): 22.3 µM (active)

S=C(NCCCN1CCOCC1)Nc1ccc(-c2nc3ccccc3[nH]2)cc1
IC50 [12]: 56.7 µM (inactive) | IC50 [13]: 3.03 µM (active) | IC50 [14]: 3.45 µM (active)

C=CCNC(=S)N/N=C(\C)c1cccc(OC)c1
IC50 [15]: > 66 µM (inactive) | IC50 [16]: > 66 µM (inactive)

O=C(O)c1cccc(NC(=O)c2ccc(COc3ccc(Cl)cc3)cc2)c1
IC50 [8]: 16.7 µM (active) | IC50 [9]: 21.8 µM (active) | IC50 [10]: 41 µM (active) | IC50 (Caspase-3): > 100 µM (inactive)

CCOC(S)=NC(=NS(C)(=O)=O)c1ccccc1
IC50 [15]: > 66 µM (inactive) | IC50 [16]: > 66 µM (inactive)

CCOc1ccc(NS(=O)(=O)c2cccc(C(=O)N3CCN(C/C=C/c4ccccc4)CC3)c2)cc1
IC50 (Protein Wnt-3a): 22.7 µM (inactive)
